# Source: PMC9250534, “Synthesis and direct assay of large macrocycle diversities by combinatorial late-stage modification at picomole scale” (Nature Communications, 2022)
# Target: MDM2 (Homo sapiens, UniProt Q00987)
# Assay: MDM2 binding screen of Libraries 3 and 4: displacement of fluorescent probe F-M8 at 750 nM macrocycle
# Conditions: Panel b, Library 3: 63 scaffolds combinatorially acylated with 15 carboxylic acids at 30 picomole scale; displacement of fluorescent peptide probe; macrocycle 750 nM
# How it was run: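 Cyclic peptide scaffolds were acylated in DMSO with carboxylic acids (20 equiv.), HBTU and DABCO for 6 h at room temperature. Reactions were quenched overnight in 100 mM Tris-Cl pH 7.4, 0.01% Tween20. The fluorescein conjugate was also competed with nutlin-3a.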
# Sequence of MDM2 (Q00987 whole entry): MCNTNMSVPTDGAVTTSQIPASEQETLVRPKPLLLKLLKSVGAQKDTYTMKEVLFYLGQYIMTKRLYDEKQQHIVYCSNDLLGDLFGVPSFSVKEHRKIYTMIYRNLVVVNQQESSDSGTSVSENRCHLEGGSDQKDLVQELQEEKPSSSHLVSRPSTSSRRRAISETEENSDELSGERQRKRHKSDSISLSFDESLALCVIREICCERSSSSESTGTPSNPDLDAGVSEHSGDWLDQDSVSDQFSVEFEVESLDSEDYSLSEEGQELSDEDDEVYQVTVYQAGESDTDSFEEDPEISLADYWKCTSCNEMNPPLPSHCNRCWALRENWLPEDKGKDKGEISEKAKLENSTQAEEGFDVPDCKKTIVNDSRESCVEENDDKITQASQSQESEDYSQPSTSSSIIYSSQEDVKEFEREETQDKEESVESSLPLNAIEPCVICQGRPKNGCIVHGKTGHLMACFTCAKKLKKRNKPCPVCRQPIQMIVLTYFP
row,SMILES,fraction of fluorescent probe displaced
1,O=C(/C=C/c1ccc(OCc2ccccc2)cc1)NCCN1CC(=O)N[C@@H](Cc2ccc3ccccc3c2)C(=O)NCCSSCCC(=O)N2CCC[C@@H](C2)C1=O [X-Nip-N-Aeg-2-Nal + Acid 110],0.035
2,O=C1CN(CCNC(=O)c2cccc(Oc3ccccc3)c2)C(=O)[C@H]2CCCN(C2)C(=O)CCSSCCNC(=O)[C@H](Cc2ccc3ccccc3c2)N1 [X-Nip-N-Aeg-2-Nal + Acid 111],0.00133
3,CC(Oc1cccc(Cl)c1)C(=O)NCCN1CC(=O)N[C@@H](Cc2ccc3ccccc3c2)C(=O)NCCSSCCC(=O)N2CCC[C@@H](C2)C1=O (stereo partly shown) [X-Nip-N-Aeg-2-Nal + Acid 113],0.00133
4,O=C(CCS(=O)(=O)c1ccccc1)NCCN1CC(=O)N[C@@H](Cc2ccc3ccccc3c2)C(=O)NCCSSCCC(=O)N2CCC[C@@H](C2)C1=O [X-Nip-N-Aeg-2-Nal + Acid 114],0.015
5,O=C1CN(CCNC(=O)c2cccc(Oc3ccccc3)c2)C(=O)[C@H]2CCCN(C2)C(=O)CCSSCCNC(=O)[C@H](Cc2c[nH]c3cc(Cl)ccc23)N1 [X-Nip-N-Aeg-Cl-Trp + Acid 111],-0.00533
6,O=C(/C=C/c1ccc2ccccc2c1)NCCN1CC(=O)N[C@@H](Cc2c[nH]c3cc(Cl)ccc23)C(=O)NCCSSCCC(=O)N2CCC[C@@H](C2)C1=O [X-Nip-N-Aeg-Cl-Trp + Acid 112],0.00133
7,CC(Oc1cccc(Cl)c1)C(=O)NCCN1CC(=O)N[C@@H](Cc2c[nH]c3cc(Cl)ccc23)C(=O)NCCSSCCC(=O)N2CCC[C@@H](C2)C1=O (stereo partly shown) [X-Nip-N-Aeg-Cl-Trp + Acid 113],-0.019
8,O=C(/C=C/c1ccc2ccccc2c1)NCCN1CC(=O)N[C@H](Cc2c[nH]c3ccccc23)C(=O)NCCSSCCC(=O)N2CCC[C@@H](C2)C1=O [X-Nip-N-Aeg-D-Trp + Acid 112],0.055
9,Cn1cc(C[C@@H]2NC(=O)CN(CCNC(=O)c3ccc(Cl)s3)C(=O)[C@H]3CCCN(C3)C(=O)CCSSCCNC2=O)c2ccccc21 [X-Nip-N-Aeg-Me-Trp + Acid 14],-0.012
10,Cn1cc(C[C@@H]2NC(=O)CN(CCNC(=O)c3ccc4ccccc4c3)C(=O)[C@H]3CCCN(C3)C(=O)CCSSCCNC2=O)c2ccccc21 [X-Nip-N-Aeg-Me-Trp + Acid 107],0.011
11,Cn1cc(C[C@@H]2NC(=O)CN(CCNC(=O)/C=C/c3ccc(OCc4ccccc4)cc3)C(=O)[C@H]3CCCN(C3)C(=O)CCSSCCNC2=O)c2ccccc21 [X-Nip-N-Aeg-Me-Trp + Acid 110],0.00133
12,CC(Oc1cccc(Cl)c1)C(=O)NCCN1CC(=O)N[C@@H](Cc2cn(C)c3ccccc23)C(=O)NCCSSCCC(=O)N2CCC[C@@H](C2)C1=O (stereo partly shown) [X-Nip-N-Aeg-Me-Trp + Acid 113],0.008
13,Cn1cc(C[C@@H]2NC(=O)CN(CCNC(=O)CCS(=O)(=O)c3ccccc3)C(=O)[C@H]3CCCN(C3)C(=O)CCSSCCNC2=O)c2ccccc21 [X-Nip-N-Aeg-Me-Trp + Acid 114],0.00133
14,CN1C(=O)CN(CCNC(=O)c2ccc(Cl)s2)C(=O)[C@H]2CCCN(C2)C(=O)CCSSCCNC(=O)[C@@H]1Cc1c[nH]c2ccccc12 [X-Nip-N-Aeg-NMe-Trp + Acid 14],0.00133
15,CN1C(=O)CN(CCNC(=O)/C=C/c2ccc(Cl)cc2)C(=O)[C@H]2CCCN(C2)C(=O)CCSSCCNC(=O)[C@@H]1Cc1c[nH]c2ccccc12 [X-Nip-N-Aeg-NMe-Trp + Acid 108],0.028
16,CN1C(=O)CN(CCNC(=O)c2cccc(Oc3ccccc3)c2)C(=O)[C@H]2CCCN(C2)C(=O)CCSSCCNC(=O)[C@@H]1Cc1c[nH]c2ccccc12 [X-Nip-N-Aeg-NMe-Trp + Acid 111],-0.012
17,CN1C(=O)CN(CCNC(=O)CCS(=O)(=O)c2ccccc2)C(=O)[C@H]2CCCN(C2)C(=O)CCSSCCNC(=O)[C@@H]1Cc1c[nH]c2ccccc12 [X-Nip-N-Aeg-NMe-Trp + Acid 114],-0.00533
18,O=C1CN(CCNC(=O)c2ccc(Cl)s2)C(=O)[C@H]2CCCN(C2)C(=O)CCSSCCNC(=O)[C@H](Cc2c[nH]c3ccccc23)N1 [X-Nip-N-Aeg-Trp + Acid 14],-0.00533
19,O=C1CN(CCNC(=O)c2cccc(Oc3ccccc3)c2)C(=O)[C@H]2CCCN(C2)C(=O)CCSSCCNC(=O)[C@H](Cc2c[nH]c3ccccc23)N1 [X-Nip-N-Aeg-Trp + Acid 111],0.015
20,O=C(CCS(=O)(=O)c1ccccc1)NCCN1CC(=O)N[C@@H](Cc2c[nH]c3ccccc23)C(=O)NCCSSCCC(=O)N2CCC[C@@H](C2)C1=O [X-Nip-N-Aeg-Trp + Acid 114],0.035
21,O=C1CN(CCNC(=O)C2COc3ccccc3O2)C(=O)[C@H]2CCCN(C2)C(=O)CCSSCCNC(=O)[C@H](Cc2c[nH]c3ccccc23)N1 (stereo partly shown) [X-Nip-N-Aeg-Trp + Acid 115],0.021

# Target: T1, thrombin (Homo sapiens, UniProt P00734)
# T1 construct: consists of two polypeptide chains of 36 (light chain) and 259 amino acid
# Assay: Determination of Kis of purified thrombin inhibitors (IC50, Cheng-Prusoff)
# Assay type: biochemical
# Conditions: read-out: Ki thrombin
# Protocol: Purified thrombin inhibitors (10 mM in DMSO) were diluted to 80 μM in 125 μL of Tris buffer (100 mM Tris-Cl, 150 mM NaCl, 10 mM MgCl2, 1 mM CaCl2) containing 0.1% w/v BSA, 0.01% v/v Triton-X100 and […]. The macrocycles were diluted two-fold in Tris buffer containing 0.1% w/v BSA, 0.01% v/v Triton-X100 and 1% DMSO in buffer. The thrombin activity was measured in 96-well plates (Greiner, 655101) and the residual activity calculated as described above in the assay used to measure activities of HPLC-separated fractions of screening hits.
# Supplementary Figure 7. Thrombin inhibitors M1 to M5. a, Chemical structures and analytical HPLC chromatograms obtained using a 0-100% MeCN/H2O gradient over 15 minutes. b, For all macrocycles, an 18 -point, two-fold serial dilution was performed in 50 µL volumes. Thrombin was added (50 µL, 2 nM final conc.), followed 10 minutes later by fluorogenic substrate Z -Gly-Gly-Arg-AMC (50 µL, 50 µM final conc.). The increase in fluorescence was measured over 30 minutes.
# Residual thrombin activity was determined by dividing the slope of fluorescenc e intensity over time for each well by the slope of control wells without macrocycle. Mean values and SDs are indicated for three independent thrombin inhibition measurements.
# (1 picture or pasted object on this page, not shown here)
row,SMILES,Ki
1,"NC(=O)c1ccc(Cl)s1 [5-chlorothiophene-2-carboxamide, reference compound]",380 µM
